These results are taken from ChEMBL document CHEMBL3576838, “Synthesis and in vitro and in vivo biological evaluation of substituted nitroquinoxalin-2-ones and 2,3-diones as novel trichomonacidal agents” (Eur J Med Chem, 2015).

The test system of data set [1] is Trichomonas vaginalis. Description: Trichomonicidal activity against Trichomonas vaginalis JH31A#4 trophozite assessed as inhibition of parasite growth after 24 hrs by resazurin redox dye based fluorimetric microtiter method. Format: functional, organism-based. The conditions noted are these: JH31A#4, 24 h.
In data set [2] the test system is Trichomonas vaginalis. Description: Trichomonicidal activity against Trichomonas vaginalis JH31A#4 trophozite assessed as inhibition of parasite growth at 300 uM after 24 hrs by resazurin redox dye based fluorimetric microtiter method. The following applies: JH31A#4, 24 h. In kind it is functional.
Data set [3] concerns Trichomonas vaginalis. Nature of the data set: Trichomonicidal activity against Trichomonas vaginalis JH31A#4 trophozite assessed as inhibition of parasite growth at 150 uM after 24 hrs by resazurin redox dye based fluorimetric microtiter method. The following applies: JH31A#4, 24 h. Format: functional. For orientation: Resazurin is reduced to fluorescent resorufin, in cell work by metabolically active cells.

Data set [4] deals with Trichomonas vaginalis. Nature of the data set: Trichomonicidal activity against Trichomonas vaginalis JH31A#4 trophozite assessed as inhibition of parasite growth at 75 uM after 24 hrs by resazurin redox dye based fluorimetric microtiter method. In kind it is functional. The conditions noted are these: JH31A#4, 24 h.
Data set [5] concerns Trichomonas vaginalis. Nature of the data set: Trichomonicidal activity against Trichomonas vaginalis JH31A#4 trophozite assessed as inhibition of parasite growth at 37.5 uM after 24 hrs by resazurin redox dye based fluorimetric microtiter method. In kind it is functional. The conditions noted are these: JH31A#4, 24 h.
In data set [6] the test system is Trichomonas vaginalis. Description: Trichomonicidal activity against Trichomonas vaginalis JH31A#4 trophozite assessed as inhibition of parasite growth at 18.75 uM after 24 hrs by resazurin redox dye based fluorimetric microtiter method. Format: functional. The following applies: JH31A#4, 24 h.
In data set [7] the test system is Trichomonas vaginalis. Nature of the data set: Trichomonicidal activity against Trichomonas vaginalis JH31A#4 trophozite assessed as inhibition of parasite growth at 9.37 uM after 24 hrs by resazurin redox dye based fluorimetric microtiter method. Format: functional. The conditions noted are these: JH31A#4, 24 h.
A further data set relates to Vero. Nature of the data set: Cytotoxicity against African green monkey Vero cells at 300 uM after 24 hrs by resazurin redox dye based fluorimetric microtiter method. Format: cell-based. The following applies: chlorocebus sabaeus.
A short description of data set [8]: Cytotoxicity against African green monkey Vero cells assessed as inhibition of cell growth after 24 hrs by resazurin redox dye based fluorimetric microtiter method. The conditions noted are these: chlorocebus sabaeus.
The nature of data set [9]: Selectivity index, ratio of CC50 for African green monkey Vero cells to IC50 for Trichomonas vaginalis JH31A#4 trophozite. In kind it is functional.
The test system of data set [10] is Trichomonas vaginalis. Description: Trichomonicidal activity against Trichomonas vaginalis JH31A#4 trophozite assessed as inhibition of parasite growth at 10 ug/ml after 24 hrs by resazurin redox dye based fluorimetric microtiter method. Format: functional. The conditions noted are these: JH31A#4, 24 h, read-out: GI.

The structures appear in SMILES notation.

In the case of `Cn1c(=O)c(=O)n(C)c2cc([N+](=O)[O-])ccc21`, the IC50 (commonly the concentration that inhibits the measured activity by half) in the data set with Trichomonas vaginalis [1] was determined as 235 µM. Also, the inhibition (commonly the relative decrease from the control value, in per cent) at 300 µM in the data set with Trichomonas vaginalis [2] came to 61.4%. Also, the inhibition at 150 µM with Trichomonas vaginalis [3] worked out at 35.4%. Moreover, the inhibition at 75 µM in the data set with Trichomonas vaginalis [4] worked out at 22.5%. Besides, the inhibition at 37.5 µM with Trichomonas vaginalis [5] turned out to be 18.6%. Also, in the data set on Trichomonas vaginalis [6], the inhibition at 18.75 µM is 15.8%. For the same compound, the inhibition at 9.37 µM in the data set with Trichomonas vaginalis [7] is 12.9%.

`Cl.O=C1CN(CCN2CCCCC2)c2ccc([N+](=O)[O-])cc2N1`: in the data set with Trichomonas vaginalis [1], the IC50 is 30.7 µM. For the same compound, the inhibition at 300 µM in the data set on Trichomonas vaginalis [2] stood at 99%. Besides, the inhibition at 150 µM with Trichomonas vaginalis [3] amounted to 82.2%. Moreover, the inhibition at 75 µM in the data set with Trichomonas vaginalis [4] was 78.3%. Besides, in the data set with Trichomonas vaginalis [5], the inhibition at 37.5 µM was 45.6%. In addition, in the data set on Trichomonas vaginalis [6], the inhibition at 18.75 µM was found to be 32.7%. The inhibition at 9.37 µM in the data set with Trichomonas vaginalis [7] came to 26%. In addition, in the data set with Vero, the Activity was 1.51%. In addition, the half-maximal cytotoxic concentration (CC50) – broadly, the concentration giving 50% cytotoxicity – at 24 h in data set [8] is above 300 µM. The “Ratio CC50/IC50” value in data set [9] is above 10.

In the case of `Cn1c(=O)c(=O)n(CCCCCCl)c2ccc([N+](=O)[O-])cc21`, the IC50 in the data set on Trichomonas vaginalis [1] was 61.4 µM. In the data set on Trichomonas vaginalis [2], the inhibition at 300 µM stood at 70.2%. In the data set on Trichomonas vaginalis [3], the inhibition at 150 µM stood at 66.2%. Further, the inhibition at 75 µM with Trichomonas vaginalis [4] stood at 52.2%. The inhibition at 37.5 µM in the data set with Trichomonas vaginalis [5] came to 45.7%. Also, in the data set on Trichomonas vaginalis [6], the inhibition at 18.75 µM was 40.1%. Besides, the inhibition at 9.37 µM in the data set on Trichomonas vaginalis [7] came out at 22.1%. Also, in the data set with Vero, the Activity was 0%. The CC50 at 24 h in data set [8] was above 300 µM. Besides, in data set [9], the “Ratio CC50/IC50” value is given as above 10.

For `O=C1CN(CCCO)c2ccc([N+](=O)[O-])cc2N1`, the half-inhibitory concentration (IC50) in the data set with Trichomonas vaginalis [1] was 102 µM. For the same compound, the inhibition at 300 µM with Trichomonas vaginalis [2] worked out at 84%. In addition, the inhibition at 150 µM with Trichomonas vaginalis [3] is 68.1%. Besides, the inhibition at 75 µM with Trichomonas vaginalis [4] is 28.4%. Also, the inhibition at 37.5 µM with Trichomonas vaginalis [5] turned out to be 26.6%. Besides, the inhibition at 18.75 µM in the data set on Trichomonas vaginalis [6] worked out at 4.5%. The inhibition at 9.37 µM with Trichomonas vaginalis [7] is 3.66%.

In the case of `O=C1CN(CCCCCCl)c2ccc([N+](=O)[O-])cc2N1`, the inhibition of growth at 10 µg/mL in the data set on Trichomonas vaginalis [10] is 73%.

For `Cn1c(=O)c(=O)n(CCCCCBr)c2ccc([N+](=O)[O-])cc21`, the IC50 with Trichomonas vaginalis [1] is 256 µM. Besides, in the data set with Trichomonas vaginalis [2], the inhibition at 300 µM came out at 51.1%. In the data set with Trichomonas vaginalis [3], the inhibition at 150 µM is 42.8%. Further, the inhibition at 75 µM with Trichomonas vaginalis [4] was 40.9%. Further, the inhibition at 37.5 µM with Trichomonas vaginalis [5] stood at 26.9%. Also, the inhibition at 18.75 µM with Trichomonas vaginalis [6] came to 21.5%. In the data set on Trichomonas vaginalis [7], the inhibition at 9.37 µM is 17.8%.

For `O=c1[nH]c2cc([N+](=O)[O-])ccc2n(CCCCCBr)c1=O`, in the data set on Trichomonas vaginalis [1], the 50% inhibitory concentration (IC50) was determined as 145 µM. In addition, in the data set on Trichomonas vaginalis [2], the inhibition at 300 µM was 79.6%. Further, in the data set on Trichomonas vaginalis [3], the inhibition at 150 µM came out at 49%. In addition, in the data set with Trichomonas vaginalis [4], the inhibition at 75 µM worked out at 20.1%. Moreover, in the data set with Trichomonas vaginalis [5], the inhibition at 37.5 µM was determined as 11.6%. Besides, the inhibition at 18.75 µM in the data set with Trichomonas vaginalis [6] was 4.09%. For the same compound, the inhibition at 9.37 µM with Trichomonas vaginalis [7] was 0%.

With `CN1C(=O)CN(CCCCCl)c2ccc([N+](=O)[O-])cc21`, the inhibition of growth at 10 µg/mL in the data set with Trichomonas vaginalis [10] was found to be 73%.

With `O=c1[nH]c2cc([N+](=O)[O-])ccc2n(CCCCCCCl)c1=O`, in the data set with Trichomonas vaginalis [1], the IC50 is 106 µM. For the same compound, in the data set on Trichomonas vaginalis [2], the inhibition at 300 µM was 95.8%. Moreover, the inhibition at 150 µM in the data set on Trichomonas vaginalis [3] was found to be 70.8%. The inhibition at 75 µM in the data set with Trichomonas vaginalis [4] was 45.1%. Further, in the data set with Trichomonas vaginalis [5], the inhibition at 37.5 µM turned out to be 15.1%. Besides, the inhibition at 18.75 µM with Trichomonas vaginalis [6] turned out to be 17%. Further, in the data set on Trichomonas vaginalis [7], the inhibition at 9.37 µM is 9.43%.

As to `Cn1c(=O)c(=O)n(CCCCCCCl)c2ccc([N+](=O)[O-])cc21`, the IC50 in the data set on Trichomonas vaginalis [1] stood at 25.4 µM. The inhibition at 300 µM in the data set with Trichomonas vaginalis [2] stood at 92.6%. Also, in the data set on Trichomonas vaginalis [3], the inhibition at 150 µM stood at 84.7%. Besides, the inhibition at 75 µM with Trichomonas vaginalis [4] was determined as 75.5%. In addition, the inhibition at 37.5 µM with Trichomonas vaginalis [5] amounted to 53.1%. Moreover, the inhibition at 18.75 µM with Trichomonas vaginalis [6] amounted to 42.1%. Also, in the data set with Trichomonas vaginalis [7], the inhibition at 9.37 µM was 31.6%. Further, the Activity in the data set on Vero came out at 14.14%. In data set [8], the CC50 at 24 h is above 300 µM. Besides, the “Ratio CC50/IC50” value in [9] is listed as above 10.

As for `CN1C(=O)CN(CCN2CCCCC2)c2ccc([N+](=O)[O-])cc21`, the 50% inhibitory concentration (IC50) in the data set with Trichomonas vaginalis [1] is 29.9 µM. In addition, the inhibition at 300 µM with Trichomonas vaginalis [2] came to 100%. Further, the inhibition at 150 µM in the data set with Trichomonas vaginalis [3] worked out at 100%. In addition, the inhibition at 75 µM in the data set with Trichomonas vaginalis [4] was found to be 96%. The inhibition at 37.5 µM with Trichomonas vaginalis [5] came to 59.6%. In the data set on Trichomonas vaginalis [6], the inhibition at 18.75 µM was determined as 13.9%. Further, the inhibition at 9.37 µM in the data set on Trichomonas vaginalis [7] is 7.8%. In the data set with Vero, this compound displayed an Activity of 0%. The CC50 at 24 h in [8] was above 300 µM. Moreover, the “Ratio CC50/IC50” value in data set [9] was above 10.

On to `CN1C(=O)CN(CCCCCCl)c2ccc([N+](=O)[O-])cc21`, for which, in the data set with Trichomonas vaginalis [10], the inhibition of growth at 10 µg/mL was 73%.

Take `O=C1Nc2cc([N+](=O)[O-])ccc2N2CCCOC12` (stereo not drawn): in the data set on Trichomonas vaginalis [1], the IC50 is 41.9 µM. Further, the inhibition at 300 µM in the data set on Trichomonas vaginalis [2] is 99.5%. Further, the inhibition at 150 µM with Trichomonas vaginalis [3] was found to be 92.8%. Further, in the data set on Trichomonas vaginalis [4], the inhibition at 75 µM turned out to be 77.4%. Further, the inhibition at 37.5 µM in the data set with Trichomonas vaginalis [5] amounted to 51.3%. Besides, the inhibition at 18.75 µM with Trichomonas vaginalis [6] worked out at 12.1%. The inhibition at 9.37 µM in the data set with Trichomonas vaginalis [7] was 0.98%. In addition, in the data set with Vero, the Activity is 2.08%. Also, in [8], the CC50 at 24 h is above 300 µM. Also, the “Ratio CC50/IC50” value in data set [9] is listed as above 10.
